From patent publication US4956355A, “Agents for the arrest and therapy of retroviral infections” (Colthurst Limited, priority 1987, dated 1990)

How the values were obtained:
[1] = test system: HIV in VB T lymphoma cell line; assay: Inhibition of HIV mediated cytopathic effects (multinucleated giant/syncytial cell formation) in acutely infected VB tumor cell line; assay type: cell-based
Description: (§1) 1. […] All three viral strains were grown in the Tissue Culture Laboratory of the AIDS Activity Division of San Francisco General Hospital where titers of […] infectious units per ml were routinely achieved.
(§2) 2. Source of cells: The VB cell line used in Example 1 is a T lymphoma cell line that is highly susceptible to infection with HIV, and expresses high levels of cell surface CD4 molecules. This cell line forms syncytia within two days after infection with all strains of HIV tested to date. […] This is used to quantitate infection in the absence of syncytial formation, infection being quantitated by immunofluorescence assays. The HXB/H9 cell line (Example 6) is an H9 cell population that chronically produces the HTLV-IIIB strain of HIV and is utilised in experiments testing antiviral effects on chronically infected cell lines. Human macrophages were prepared from peripheral blood mononuclear cells either obtained from the blood bank as a buffy coat, or as a leukophoresis preparation. Crowe et al. supra have devised an assay system that allows quantitation of HIV infection, and inhibition of infection using immunocytofluorographic analysis. In order to quantitate HIV infection in macrophages, they grow macrophages in Teflon (Trade Mark) culture vessels which maintain macrophages in suspension in vitro culture for up to six months. Cell surface and cytoplasmic immunofluorescence staining is then performed to quantitate antigens in macrophages by flow cytometry.
5. Inhibition of acute infection: Several assays were utilized to test for inhibition of acute infection; these included:
(a) Inhibition of multinucleated giant cell formation in acutely infected VB cells infected at a multiplicity of infection of 1, and scored two days after infection in the presence or absence of varying concentrations of drug, for the formation of multinucleated giant cells. (free virus is washed out after a one hour incubation pretreatment at room temperature). […] Supernatants were also isolated and the level of HIV p24 antigen determined. Infectious virus was measured in treated cultures by performing a syncytial assay as described above.
Compounds A and B were tested for inhibition of T lymphoma cell cytopathic effect at various drug concentrations after acute infection with HIV for 48 hours. […] It is possible that the diminished effects noted in later experiments could have been secondary to drug stability problems.

HIV in human macrophages = assay: Inhibition of HIV production in normal human macrophages (supernatant p24, acute infection); assay type: cell-based
Description: as §1, §2
4. HIV soluble p24 antigen detection: Soluble p24 antigens were measured with the Abbott HIV antigen detection system.
(c) To test whether Compounds A and B were effective at blocking acute infection of macrophages, macrophages from Teflon cultures were exposed at a multiplicity of 1 to HIV-DV in the presence or absence of various concentrations of drug (Examples 3-5). Normally, HIV expression peaks in human macrophages at approximately ten days after initial infection. Therefore, after infection for one hour at room temperature, followed by a wash and resuspension of the macrophages in various drug concentrations, macrophages were stained for the presence of p24 antigen at day ten. Culture supernatants from these macrophages were assayed for the presence of soluble p24, and infectious virus as described above.
To test whether compounds A and B might be active at inhibiting infection of normal human macrophages, a spectrum of drug concentrations were tested for inhibition of acute infection, and inhibition of HIV expression in chronically infected macrophages. […] After acute infection (one hour) cells were incubated in various concentrations of compounds A and B, and 7 days after the initial infection supernatants were harvested for p24 antigen quantitation. […]

HIV in HXB/H9 cell line = assay: Antiviral testing of chronically HIV infected cell line HXB; assay type: cell-based; conditions: other than killing with compound B at 10^-4 molar
Description: as §1
as §2, with “Human macrophages were prepared from peripheral blood mononuclear cells either obtained from the blood bank as a buffy coat, or as a leukophoresis preparation.” left out, “cytometry. […]” for “cytometry.”

HIV = assay: Use of dehydroepiandrosterone in AIDS therapy, twelve patients; assay type: in vivo, human patients
Description: Twelve patients all of whom were sero-positive for HIV and had been diagnosed as suffering from AIDS were treated with DHEA for up to six months. The DHEA was administered in the form of hard gelatin capsules containing 100 mg of DHEA and at a rate of 100 mg to 600 mg per day. The vast majority being on 500 mg per day in divided doses. The patients were all homosexual or bisexual males with an average age of 34.5 years and an average weight of 69.6 kg.
Past and present HIV clinical manifestations included: unexplained diarrhoea, Kaposis Sarcoma, Herpes Zoster, Oral Candidiasis, Lymphadenopathy, Oral Hairy Leucoplakia, involuntary weight loss, dermal mycoses and Stapholococcal skin infections.
All of the patients were in an advanced stage of AIDS at the commencement of the trial and normally further deterioration of their condition, or even death, would have been expected over the six month period of the trial. […] Patient 7 gained 8 kg over five months.

[2] = test system: human peripheral blood mononuclear (PBM) cells infected with Epstein-Barr virus; conditions: cited from earlier work
mitotic activity = conditions: cited from earlier work
[3] = in vivo; cited from earlier work

C[C@]12CC[C@H](O)CC1=CC[C@@H]1[C@@H]2CC[C@]2(C)C(=O)CC[C@@H]12 [A, dehydroepiandrosterone]
antiviral effects in comparison with AZT, T lymphoma cells ([1]; acute infection): inferior | antiviral effect in acute infection studies of T lymphoma cells ([1]; acute infection, conclusions): mild antiviral effect | inhibition of cytopathic effect in two subsequent experiments ([1]; compounds diluted in DMSO, possibly secondary to drug stability problems): less striking effect | decrease in production of HIV p24 antigens (supernatant) (HIV in human macrophages; 10^-4 through 10^-8 molar, 7 days after acute infection, FIG. 3): approximately 50% | HIV infection and HIV expression in macrophages (HIV in human macrophages; in vitro, reproducible, six separate monocyte/macrophage donors): inhibit HIV infection and HIV expression in macrophages | inhibition of HIV production of cytopathic effects in chronically infected lymphoma cell line (HIV in HXB/H9 cell line): no specific inhibition | patients gaining weight (HIV; of twelve patients, up to six months): four | deterioration in condition (HIV; oral, 100 mg to 600 mg per day, up to six months, twelve advanced AIDS patients): no serious deterioration in condition | weight gain of Patient 7 (HIV; over five months): 8 kg | concentrations reducing colony forming ability [2]: 10 to 100 µM | effect on mitotic activity (mitotic activity): inhibitory effect | metabolic disorders and liver cirrhosis [3]: suppress some of the metabolic disorders and liver cirrhosis | pain in ischemic heart disease, especially angina pectoris [3]: reduces pain
